For experiment [1], the system named is BHY cells (human oral squamous cell carcinoma cells). The experiment is described as follows: alamarBlue proliferation assay with BHY cells. The format is cell-based. The conditions noted are these: 72 h, 3 days treatment, single assay (preliminary), relative to DMSO basis level 1.0, read-out: equally weighted arithmetic mean (AVE) of six normalized fluorescence intensity values, activity range (RES: AVEw). On the procedure:
Compounds were tested on BHY cells using the alamarBlue® proliferation assay in analogy to the above described method with seeding the cells at an initial number of 4000 cells per 96-well and a duration of treatment with compounds for 3 days.
BHY cells were cultivated according to the protocol of the provider (but at 5% instead of 10% CO2) in DMEM medium (Fisherscientific, #11584456) containing 10% fetal bovine serum (Fisherscientific, #15517589).
A compound is considered as a growth inhibitor of BHY cells, if—at a reference concentration of 40 μM—the equally weighted arithmetic mean (AVE) of the six normalized fluorescence intensity values after addition of the corresponding standard deviation amounts to 0.9 or lower, in particular to 0.8 or lower, 0.7 or lower, 0.6 or lower, 0.4 or lower, and 0.2 or lower, relative to the overall basis level of 1.0. The overall basis level was calculated as the weighted arithmetic mean (AVEw) of all normalized values from the DMSO control measurements. The corresponding combined standard deviation for the DMSO values amounts to less than 1·10^−2. The corresponding standard deviations for the tested compounds were calculated including the Gauß′ error propagation associated with the performed calculation for the normalization. The weighted arithmetic mean (AVEw) and the combined standard deviation for RES was calculated in analogy to DMSO. Outlier analyses were performed as described above.

Experiment [2] relates to Notch signaling (hNotch1ΔE, human Notch1 receptor) in HeLa cells. The experiment is described as follows: Notch reporter assay (luciferase luminescence readout in transfected HeLa cells). The format is cell-based. The note with it: Homo sapiens, 20 hours, relative to DMSO baseline level of 1.0, read-out: AVEw, weighted arithmetic mean of double-normalized Notch-reporter luciferase luminescence values (Activity Range). In short, it runs like this:
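HeLa cells were transiently transfected for 24 h with membrane-tethered constitutively active hNotch1ΔE, a CSL-promoter Firefly luciferase reporter and constitutive SV40-Renilla luciferase. Compounds were then applied at 10 μM (0.1% DMSO) for 20 h. Firefly/Renilla dual-luciferase ratios were normalized to DMSO control (baseline 1.0), outliers were excluded, and replicate values were averaged across ≥3 independent experiments.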
In general terms: Reporter assays use an easily measured gene product as a stand-in for the process of interest.

The values that follow come from patent US12600696B2 (XENIOPRO GMBH, priority 2017, dated 2026).

Regarding `O=C(NO)c1ccc(Oc2ccc(C3CCCCC3)cc2)nc1` [Compound 284, 6-(4-Cyclohexylphenoxy)-N-hydroxynicotinamide], the activity at 40 µM in experiment [1] was in the range of 20 to 40%. Moreover, in experiment [2], the fold induction at 10 µM fell in the range of 1.7 to 2. For `O=C(NO)c1ccc(Oc2ccc(C3CC4CCC3CC4)cc2)nc1` (stereo not drawn) [Compound 287, 6-(4-((1s,4s)-bicyclo[2.2.2]octan-2-yl)phenoxy)-N-hydroxynicotinamide], in experiment [2], the fold induction at 10 µM fell in the range of 1.1 to 1.2. As to `O=C(NO)c1cnc(Oc2ccc(C3CCCCC3)cc2)c(F)c1` [Compound 644, 6-(4-Cyclohexylphenoxy)-5-fluoro-N-hydroxynicotinamide], the activity at 40 µM in experiment [1] was in the range of 60 to 70%. Moreover, the fold induction at 10 µM in experiment [2] is 1.1 to 1.2. The corresponding values for `Oc1ccc(C=Cc2cc(O)cc(O)c2)cc1` [RES, resveratrol, reference compound] are 60% and 1.5. For the compound `CCCc1ccc(Oc2ccc(C(=O)NO)cc2)cc1` [Compound 166, N-hydroxy-4-(4-propylphenoxy)benzamide], the fold induction at 10 µM in experiment [2] lay in the range of 1.2 to 1.3.

With `CCC(C)(C)c1ccc(Oc2ccc(C(=O)NO)cn2)cc1` [Compound 273, N-hydroxy-6-(4-(tert-pentyl)phenoxy)nicotinamide], the fold induction at 10 µM in experiment [2] was in the range of 1.2 to 1.3. `CCC(C)(C)c1ccc(Oc2ccc(C(=O)NO)cc2)cc1` [Compound 171, N-hydroxy-4-(4-(tert-pentyl)phenoxy)benzamide]: the activity at 40 µM in experiment [1] lay in the range of 40 to 60%. In experiment [2], the fold induction at 10 µM fell in the range of 1.1 to 1.2. Regarding `CN(C)C(=O)c1ccc(Oc2ccc(C3CCCCC3)cc2)nc1` [Compound 334, 6-(4-cyclohexylphenoxy)-N,N-dimethylnicotinamide], the fold induction at 10 µM in experiment [2] was 1.3 to 1.4. With `O=C(NO)c1ccc(Oc2ccc(C34CC5CC(CC(C5)C3)C4)cc2)cc1` [Compound 186, 4-(4-(Adamantan-1-yl)phenoxy)-N-hydroxybenzamide], in experiment [1], the activity at 40 µM fell in the range of 20 to 40%. In addition, the fold induction at 10 µM in experiment [2] was at least 2.

As to `CC(C)c1ccc(Oc2ccc(C(=O)NO)cn2)cc1` [Compound 272, N-hydroxy-6-(4-isopropylphenoxy)nicotinamide], the activity at 40 µM in experiment [1] lay in the range of 20 to 40%. Besides, the fold induction at 10 µM in experiment [2] was 1.7 to 2. With `O=C(NO)c1ccc(Oc2ccc(C34CC5CC(CC(C5)C3)C4)cc2)c(F)c1` [Compound 544, 4-(4-(Adamantan-1-yl)phenoxy)-3-fluoro-N-hydroxybenzamide], the activity at 40 µM in experiment [1] lay in the range of 20 to 40%. For the same compound, in experiment [2], the fold induction at 10 µM lay in the range of 1.4 to 1.7.

Consider `NC(=O)c1ccc(Oc2ccc(C3CC4CCC3C4)cc2)cc1` (racemic) [Compound 159, (±)-4-(4-(Bicyclo[2.2.1]heptan-2-yl)phenoxy)benzamide], for which the fold induction at 10 µM in experiment [2] lay within 1.1 to 1.2. The same measure, in the same setting: to `CNC(=O)c1ccc(Oc2ccc(C(F)(F)F)cc2)nc1` [Compound 300, N-methyl-6-(4-(trifluoromethyl)phenoxy)nicotinamide] belongs 1.1 to 1.2. For the compound `O=C(NO)c1ccc(Oc2ccc(C3CCCCC3)cc2)cc1` [Compound 182, 4-(4-cyclohexylphenoxy)-N-hydroxybenzamide], in experiment [1], the activity at 40 µM was 20 to 40%. The fold induction at 10 µM in experiment [2] lay in the range of 1.3 to 1.4.

`O=C(NO)c1ccc(Oc2ccc(C34CC5CC(CC(C5)C3)C4)cc2)nc1` [Compound 288, 6-(4-((3r,5r,7r)-adamantan-1-yl)phenoxy)-N-hydroxynicotinamide]: in experiment [1], the activity at 40 µM was 20 to 40%. The fold induction at 10 µM in experiment [2] lay within 1.7 to 2.
